Measured values published in ChEMBL document CHEMBL5550185, “Targeting hTERT Promoter G-Quadruplex DNA Structures with Small-Molecule Ligand to Downregulate hTERT Expression for Triple-Negative Breast Cancer Therapy” (J Med Chem, 2024).
Calls of active or inactive are those of the source. The calls are words filed in the database; no cut-off is given here.

Key:
[1] = Toxicity in female Balb/c nude mouse xenografted with human MDA-MB-231 cells assessed as change in mean corpuscular hemoglobin at 2 to 5 mg/kg, iv administered via tail vein every 2 days for 16 days; type: organism-based; conditions: in vivo, 384 h, dose 2-5 mg/kg, time 16 day
MDA-MB-231 [2] = assay: Induction of ferroptosis in human MDA-MB-231 cells assessed as reduction in GPX4 protein expression at 0 to 1.5 uM measured after 48 hrs by Western blot analysis; type: functional, cell-based; conditions: dose 0-1.5 µM
MDA-MB-231 [3] = assay: Upregulation of glycolysis metabolic pathway in human MDA-MB-231 cells assessed as fold increase at 1.5 uM measured after 2 hrs by Seahorse XF24 analyzer relative to control; type: functional
[4] = Upregulation of ZFP36L1 gene expression in human MDA-MB-231 cells assessed as fold change at 1 uM measured after 48 hrs by RNA-seq analysis relative to control; type: functional
[5] = Toxicity in female Balb/c nude mouse xenografted with human MDA-MB-231 cells assessed as change in WBC count at 2 to 5 mg/kg, iv administered via tail vein every 2 days for 16 days; type: organism-based; conditions: in vivo, 384 h, dose 2-5 mg/kg, time 16 day
MDA-MB-231 [6] = assay: Induction of autophagy in human MDA-MB-231 cells assessed as engulfment of damaged mitochondria by lysosomes by measuring lysosome-mitochondria colocalization at 0 to 1.5 uM measured after 48 hrs by LysoTracker Blue DND-22/MitoTracker Deep Red FM staining based confocal microscopic analysis; type: functional, cell-based; conditions: dose 0-1.5 µM
MDA-MB-231 [7] = assay: Induction of cell cycle arrest in human MDA-MB-231 cells assessed as accumulation of cells at S phase at 0.5 to 1.5 uM measured after 48 hrs by 7-aminoactinomycin D/RNase staining based flow cytometry analysis (reference value: 23.4%); type: functional; conditions: dose 0.5-1.5 µM
[8] = Upregulation of FTL gene expression in human MDA-MB-231 cells assessed as fold change at 1 uM measured after 48 hrs by RNA-seq analysis relative to control; type: functional
Quadruplex DNA [9] = assay: Binding affinity to Telo21 G4 DNA (unknown origin) assessed as change in enthalpy at 400 uM by ITC analysis; type: nucleic-acid assay
[10] = Toxicity in female Balb/c nude mouse xenografted with human MDA-MB-231 cells assessed as pathological changes in kidney at 2 to 5 mg/kg, iv administered via tail vein every 2 days for 16 days by H and E staining based analysis; type: organism-based; conditions: in vivo, 384 h, dose 2-5 mg/kg, time 16 day
MDA-MB-231 [11] = assay: Induction of mitochondrial phagocytosis in human MDA-MB-231 cells assessed as increase in autophagic vesicle formation measured after 48 hrs by MitoTracker Deep Red FM staining based live-cell confocal microscopic analysis; type: functional; conditions: dose 0-1.5 µM
[12] = Upregulation of SKP2 gene expression in human MDA-MB-231 cells assessed as fold change at 1 uM measured after 48 hrs by RNA-seq analysis relative to control; type: functional
[13] = Upregulation of TNFSF10 gene expression in human MDA-MB-231 cells assessed as fold change at 1 uM measured after 48 hrs by RNA-seq analysis relative to control; type: functional
MDA-MB-231 [14] = assay: Induction of mitochondrial dysfunction in human MDA-MB-231 cells assessed as downregulation of mitochondrial respiratory complex II-SDHB expression incubated for 48 hrs by Western blot analysis; type: functional, cell-based; conditions: dose 0-1.5 µM
MDA-MB-231 [15] = assay: Downregulation of DNAPKcs transcription level in human MDA-MB-231 cells at 1 uM measured after 48 hrs by RNA-seq analysis; type: functional, cell-based
[16] = Upregulation of KLF2 gene expression in human MDA-MB-231 cells assessed as fold change at 1 uM measured after 48 hrs by RNA-seq analysis relative to control; type: functional
[17] = Upregulation of CCNB3 gene expression in human MDA-MB-231 cells assessed as fold change at 1 uM measured after 48 hrs by RNA-seq analysis relative to control; type: functional
Quadruplex DNA [18] = assay: Binding affinity to CKIT-2 G4 DNA (unknown origin) assessed as change in enthalpy at 400 uM by ITC analysis; type: nucleic-acid assay
Quadruplex DNA [19] = assay: Binding affinity to Telo21 G4 DNA (unknown origin) assessed as thermal stability by measuring change in melting temperature at 400 uM […]; type: nucleic-acid assay
[20] = Upregulation of CCNB1 gene expression in human MDA-MB-231 cells assessed as fold change at 1 uM measured after 48 hrs by RNA-seq analysis relative to control; type: functional
MDA-MB-231 [21] = assay: Induction of oxidative stress in human MDA-MB-231 cells assessed as cellular DNA fragmentation at 0 to 1.5 uM measured after 48 hrs by comet assay; type: functional, cell-based; conditions: dose 0-1.5 µM
MDA-MB-231 [22] = assay: Disruption of energy metabolism in human MDA-MB-231 cells assessed as reduction in cellular energy production by measuring reduction in oxygen consumption rate at 1.5 uM measured after 2 hrs by Seahorse XF24 analyzer; type: functional, cell-based
[23] = Upregulation of CCND2 gene expression in human MDA-MB-231 cells assessed as fold change at 1 uM measured after 48 hrs by RNA-seq analysis relative to control; type: functional
MDA-MB-231 [24] = assay: Antitumor activity against human MDA-MB-231 cells xenografted in iv dosed female Balb/c mouse assessed as nuclear fragmentation in tumor administered via tail vein every 2 days for 16 days by H and E staining based analysis; type: functional, organism-based; conditions: dose 2-5 mg/kg, time 16.0 day
Quadruplex DNA [25] = assay: Binding affinity to Bcl-2 G4 DNA (unknown origin) assessed as change in gibbs free energy at 400 uM by ITC analysis; type: nucleic-acid assay
Homo sapiens = organism: Homo sapiens; assay: Binding affinity to antisense i-hTERT DNA assessed as change in gibbs free energy at 400 uM by ITC analysis
dsDNA = assay: Binding affinity to 4a4t duplex DNA (unknown origin) assessed as thermal stability by measuring change in melting temperature at 400 uM […]; type: nucleic-acid assay
[26] = Selectivity ratio of binding affinity to human TERT G4 DNA to binding affinity to Dt21 ssDNA (unknown origin)
[27] = Binding affinity to antisense i-hTERT DNA assessed as dissociation constant by ITC analysis; design: species or system Homo sapiens
DNA = assay: Binding affinity to DNA in telomerase-positive live human MDA-MB-231 cells assessed as reduction in fluorescence at 5 uM preincubated for 10 mins followed by washout and DNase I addition measured after 2 hrs by Hoechst 33342 staining based confocal microscopic analysis; type: cell-based
[28] = Upregulation of MAP1LC3B gene expression in human MDA-MB-231 cells assessed as fold change at 1 uM measured after 48 hrs by RNA-seq analysis relative to control; type: functional
MDA-MB-231 [29] = assay: Induction of DNA damage in human MDA-MB-231 cells assessed as upregulation of gamma-H2AX protein expression measured after 48 hrs by Western blot analysis; type: functional, cell-based; conditions: dose 0-1.5 µM
[30] = Upregulation of CDKN1A gene expression in human MDA-MB-231 cells assessed as fold change at 1 uM measured after 48 hrs by RNA-seq analysis relative to control; type: functional
PC-3 = assay: Cytotoxicity against telomerase-positive human PC-3 cells assessed as inhibition of cell growth incubated for 48 hrs by MTT assay; type: functional, cell-based; conditions: PC-3, 48 h
[31] = Cytotoxicity against HUVEC cells assessed as inhibition of cell growth incubated for 48 hrs by MTT assay; type: toxicity, cell-based; conditions: human

deltaH (Quadruplex DNA [9]): -1.09 kcal/mol
deltaH (Quadruplex DNA [18]): -1.59 kcal/mol
ΔTm (Quadruplex DNA [19]): 8.85 °C
deltaG (Quadruplex DNA [25]): -7.43 kcal/mol
deltaG (Homo sapiens): -7.58 kcal/mol
ΔTm (dsDNA): 1.65 °C
Selectivity ratio [26]: 18
Kd [27]: 2790 nM
Compound: C[n+]1c(/C=C/c2c[nH]c3ccccc23)cc(/C=C2\Sc3ccccc3N2CCCN2CCC(C(F)(F)F)CC2)c2ccccc21.[I-]
Activity [1]: Non-Toxic
Activity (MDA-MB-231 [2]): Active
fold change (FC) (MDA-MB-231 [3]): >0.8
fold change (FC) [4]: >2
Activity [5]: Non-Toxic
Activity (MDA-MB-231 [6]): Active
Activity (MDA-MB-231 [7]): 4.6%
fold change (FC) [8]: >2
Activity [10]: Non-Toxic
Activity (MDA-MB-231 [11]): Active
fold change (FC) [12]: >2
fold change (FC) [13]: >2
Activity (MDA-MB-231 [14]): Dose-Dependent Effect
Activity (MDA-MB-231 [15]): Active
fold change (FC) [16]: >2
fold change (FC) [17]: >2
fold change (FC) [20]: >2
Activity (MDA-MB-231 [21]): Active
Activity (MDA-MB-231 [22]): Active
fold change (FC) [23]: >2
Activity (MDA-MB-231 [24]): Dose-Dependent Effect
Activity (DNA): Active
fold change (FC) [28]: >2
Activity (MDA-MB-231 [29]): Dose-Dependent Effect
fold change (FC) [30]: >2
IC50 (PC-3): 2500 nM
IC50 at 48 h [31]: 8700 nM
